Source: paper PMC2630805, “Anticancer Alkaloid Lamellarins Inhibit Protein Kinases” (Marine Drugs, 2008)

Columns and labels:
AMPKα = assay: CEREP Kinase Selectivity Panel; format: biochemical; settings: 10 μM lamellarin N
p38γ kinase (h) = p38γ kinase (h) (Homo sapiens, UniProt P53778); assay: CEREP Kinase Selectivity Panel; format: biochemical; settings: 10 μM lamellarin N
ERK1 (h) = ERK1 (h) (Homo sapiens, UniProt P27361); assay: CEREP Kinase Selectivity Panel; format: biochemical; settings: 10 μM lamellarin N
PDK1 (h) = PDK1 (h) (Homo sapiens, UniProt O15530); assay: CEREP Kinase Selectivity Panel; format: biochemical; settings: 10 μM lamellarin N
Akt1/PKB α (h) = Akt1/PKB α (h) (Homo sapiens, UniProt P31749); assay: CEREP Kinase Selectivity Panel; format: biochemical; settings: 10 μM lamellarin N
IGF1R kinase (h) = IGF1R kinase (h) (Homo sapiens, UniProt P08069); assay: CEREP Kinase Selectivity Panel; format: biochemical; settings: 10 μM lamellarin N
p38α kinase (h) = p38α kinase (h) (Homo sapiens, UniProt Q16539); assay: CEREP Kinase Selectivity Panel; format: biochemical; settings: 10 μM lamellarin N
c-Met kinase (h) = c-Met kinase (h) (Homo sapiens, UniProt P08581); assay: CEREP Kinase Selectivity Panel; format: biochemical; settings: 10 μM lamellarin N
CHK1 (h) = CHK1 (h) (Homo sapiens, UniProt O14757); assay: CEREP Kinase Selectivity Panel; format: biochemical; settings: 10 μM lamellarin N
DYRK1A = DYRK1A (Rattus norvegicus, UniProt Q63470); assay: DYRK1A kinase assay (myelin basic protein)
Experimental: Blank values were subtracted and activities calculated as pmoles of phosphate incorporated during a 30 min. incubation. The activities were expressed in % of the maximal activity, i.e. in the absence of inhibitors. Controls were performed with appropriate dilutions of dimethylsulfoxide. Unless otherwise stated, the P81 phosphocellulose assay was used.
DYRK1A was expressed as a GST fusion protein in E. coli (vector kindly provided by Dr. W. Becker, Institute for Pharmacology and Toxicology, Aachen, Germany) and affinity purified on glutathione-agarose. […] ATP in a final volume of 30 μl. After 30 min incubation at 30°C, 25 μl aliquots of supernatant were treated as described above.

PKCβ 1 (h) = PKCβ 1 (h) (Homo sapiens, UniProt P05771); assay: CEREP Kinase Selectivity Panel; format: biochemical; settings: 10 μM lamellarin N
CSK (h) = CSK (h) (Homo sapiens, UniProt P41240); assay: CEREP Kinase Selectivity Panel; format: biochemical; settings: 10 μM lamellarin N
FGFR2 kinase (h) = FGFR2 kinase (h) (Homo sapiens, UniProt P21802); assay: CEREP Kinase Selectivity Panel; format: biochemical; settings: 10 μM lamellarin N
[1] = test system: human neuroblastoma SH-SY5Y cells; assay: SH-SY5Y cell survival, MTS reduction assay; format: cell-based; settings: read-out: IC50 SH-SY5Y cell survival
Experimental: We next tested the effects of each lamellarin, at an initial 10 μM concentration, on the survival of the neuroblastoma SH-SY5Y cell line after 48 h exposure (Table 2). Cell survival was estimated by the MTS reduction assay.
SH-SY5Y human neuroblastoma cells were grown in DMEM supplemented with 2mM L-glutamine (Invitrogen, Cergy Pontoise, France), plus antibiotics (penicillin-streptomycin) and a 10% volume of fetal calf serum (FCS) (Invitrogen). Cell viability was determined by means of the MTS (3- (4,5-dimethylthiazol-2-yl)-5- (3-carboxymethoxyphenyl)-2- (4-sulfophenyl)-2H -tetrazolium) reduction method as previously described. Cell death was (also) assayed by LDH release. Lactate dehydrogenase is a stable cytosolic enzyme that is released upon cell lysis. SH-SY5Y cells were also subjected to caspase activity assays. These are based on cleavage of a synthetic caspase substrate DEVD (MP Biomedicals, 199423), a subtrate of active caspase 3/6/7. The assay was carried out according to manufacturer’s instructions.

BMX kinase (h) (Etk) = BMX kinase (h) (Etk) (Homo sapiens, UniProt P51813); assay: CEREP Kinase Selectivity Panel; format: biochemical; settings: 10 μM lamellarin N
SH-SY5Y cells = assay: Kinetics and dose-response of cell death (MTS reduction, LDH release, DEVDase caspase activity); format: cell-based, human; settings: dose-response, doses as low as
Experimental: SH-SY5Y cells were next incubated with a range of lamellarin N concentrations or at 1 μM over 48 hrs. Cell survival was monitored by the MTS reduction assay, cell death was assessed by the LDH release assay and caspase activation was measured using DEVD as a substrate (Figure 1).
Figure 1. Dose- and time- dependent induction of cell death by lamellarin N. (A) Neuroblastoma SH-SY5Y cells were treated with lamellarin N at various concentrations. Cell death was measured by LDH release, cell survival was assessed by the MTS reduction assay, and caspase 3 activity was monitored as DEVDase activity. MTS and LDH assay were carried out 48 hours after treatment with lamellarin N. The caspase assay was carried out 24 hours after treatment. (B) Kinetics of cell survival, cell death and caspases activation following exposure of SH-SY5Y cells to 1 μM lamellarin N. Average of 3 independent experiments performed in triplicate. The standard deviation (±SD) is indicated by error bars.
SH-SY5Y human neuroblastoma cells were grown in DMEM supplemented with 2mM L-glutamine (Invitrogen, Cergy Pontoise, France), plus antibiotics (penicillin-streptomycin) and a 10% volume of fetal calf serum (FCS) (Invitrogen). Cell viability was determined by means of the MTS (3- (4,5-dimethylthiazol-2-yl)-5- (3-carboxymethoxyphenyl)-2- (4-sulfophenyl)-2H -tetrazolium) reduction method as previously described. […]

[2] = target: FLT-1 kinase (h) (VEGFR1) (Homo sapiens, UniProt P17948); assay: CEREP Kinase Selectivity Panel; format: biochemical; settings: 10 μM lamellarin N

FGFR2 kinase (h), sequence (P21802 22-821): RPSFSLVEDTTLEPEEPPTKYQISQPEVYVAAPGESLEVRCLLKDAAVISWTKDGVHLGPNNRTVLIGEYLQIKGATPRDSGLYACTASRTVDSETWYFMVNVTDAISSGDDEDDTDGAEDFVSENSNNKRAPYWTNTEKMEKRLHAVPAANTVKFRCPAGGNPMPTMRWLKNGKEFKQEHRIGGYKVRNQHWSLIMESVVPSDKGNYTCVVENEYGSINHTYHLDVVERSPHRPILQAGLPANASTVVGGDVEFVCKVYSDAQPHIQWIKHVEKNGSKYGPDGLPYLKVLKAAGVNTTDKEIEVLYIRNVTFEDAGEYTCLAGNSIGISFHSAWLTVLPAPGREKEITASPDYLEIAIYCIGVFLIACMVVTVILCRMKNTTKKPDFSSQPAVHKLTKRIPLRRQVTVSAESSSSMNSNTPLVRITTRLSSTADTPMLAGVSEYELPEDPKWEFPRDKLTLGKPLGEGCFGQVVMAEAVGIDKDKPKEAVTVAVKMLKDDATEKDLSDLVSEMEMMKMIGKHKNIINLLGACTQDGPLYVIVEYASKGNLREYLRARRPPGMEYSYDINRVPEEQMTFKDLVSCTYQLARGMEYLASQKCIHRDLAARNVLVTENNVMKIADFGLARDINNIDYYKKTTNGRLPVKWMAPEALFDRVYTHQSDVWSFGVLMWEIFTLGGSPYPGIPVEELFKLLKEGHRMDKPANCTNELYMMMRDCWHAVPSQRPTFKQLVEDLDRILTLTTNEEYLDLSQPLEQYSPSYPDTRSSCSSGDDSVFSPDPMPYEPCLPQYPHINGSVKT
PDK1 (h), sequence (O15530 whole entry): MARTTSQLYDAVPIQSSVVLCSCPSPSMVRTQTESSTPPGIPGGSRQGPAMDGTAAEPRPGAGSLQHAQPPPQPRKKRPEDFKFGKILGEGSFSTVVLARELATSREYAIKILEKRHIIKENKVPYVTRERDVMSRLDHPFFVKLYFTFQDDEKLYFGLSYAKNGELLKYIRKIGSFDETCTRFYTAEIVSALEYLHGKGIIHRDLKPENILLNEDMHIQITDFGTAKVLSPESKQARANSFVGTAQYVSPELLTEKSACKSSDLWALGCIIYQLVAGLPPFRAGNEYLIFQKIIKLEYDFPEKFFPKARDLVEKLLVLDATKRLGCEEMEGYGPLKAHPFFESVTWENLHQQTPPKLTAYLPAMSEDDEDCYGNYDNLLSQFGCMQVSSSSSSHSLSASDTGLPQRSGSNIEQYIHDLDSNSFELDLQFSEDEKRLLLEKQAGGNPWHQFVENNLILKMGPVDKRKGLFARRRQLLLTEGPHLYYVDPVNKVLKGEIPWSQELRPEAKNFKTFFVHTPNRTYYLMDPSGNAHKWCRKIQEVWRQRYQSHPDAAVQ
BMX kinase (h) (Etk), sequence (P51813 whole entry): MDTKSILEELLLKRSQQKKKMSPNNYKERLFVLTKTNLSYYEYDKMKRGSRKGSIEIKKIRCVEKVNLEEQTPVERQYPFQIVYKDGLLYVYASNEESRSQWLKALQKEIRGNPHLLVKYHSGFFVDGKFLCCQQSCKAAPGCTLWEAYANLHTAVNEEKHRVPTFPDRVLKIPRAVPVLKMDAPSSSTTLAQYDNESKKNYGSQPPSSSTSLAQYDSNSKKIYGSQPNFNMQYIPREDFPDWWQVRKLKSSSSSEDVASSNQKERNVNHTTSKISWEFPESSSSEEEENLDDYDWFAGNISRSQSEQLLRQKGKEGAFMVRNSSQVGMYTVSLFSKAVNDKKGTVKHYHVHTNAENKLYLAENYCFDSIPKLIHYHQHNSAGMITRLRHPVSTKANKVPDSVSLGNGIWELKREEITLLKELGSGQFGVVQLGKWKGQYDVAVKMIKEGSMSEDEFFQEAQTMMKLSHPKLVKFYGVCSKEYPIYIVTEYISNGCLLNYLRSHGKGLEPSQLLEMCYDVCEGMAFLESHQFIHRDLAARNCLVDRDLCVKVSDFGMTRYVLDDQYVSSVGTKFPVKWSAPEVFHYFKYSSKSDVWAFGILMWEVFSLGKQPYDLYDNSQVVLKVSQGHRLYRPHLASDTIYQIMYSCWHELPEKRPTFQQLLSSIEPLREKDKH
Akt1/PKB α (h), sequence (P31749 whole entry): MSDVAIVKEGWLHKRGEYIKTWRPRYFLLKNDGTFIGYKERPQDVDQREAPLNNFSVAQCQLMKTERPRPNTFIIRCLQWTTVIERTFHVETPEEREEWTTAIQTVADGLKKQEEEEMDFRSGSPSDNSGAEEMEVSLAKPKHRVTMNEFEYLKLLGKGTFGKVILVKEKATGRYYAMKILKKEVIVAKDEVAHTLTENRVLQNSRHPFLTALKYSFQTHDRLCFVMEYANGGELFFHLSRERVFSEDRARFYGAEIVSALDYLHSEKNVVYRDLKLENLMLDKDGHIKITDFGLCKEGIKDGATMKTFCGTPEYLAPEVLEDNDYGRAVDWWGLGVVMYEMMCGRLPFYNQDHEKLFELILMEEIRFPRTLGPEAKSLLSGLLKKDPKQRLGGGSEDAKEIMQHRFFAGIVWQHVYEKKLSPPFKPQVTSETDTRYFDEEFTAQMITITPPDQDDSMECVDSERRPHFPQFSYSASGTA
IGF1R kinase (h), sequence (P08069 31-1367): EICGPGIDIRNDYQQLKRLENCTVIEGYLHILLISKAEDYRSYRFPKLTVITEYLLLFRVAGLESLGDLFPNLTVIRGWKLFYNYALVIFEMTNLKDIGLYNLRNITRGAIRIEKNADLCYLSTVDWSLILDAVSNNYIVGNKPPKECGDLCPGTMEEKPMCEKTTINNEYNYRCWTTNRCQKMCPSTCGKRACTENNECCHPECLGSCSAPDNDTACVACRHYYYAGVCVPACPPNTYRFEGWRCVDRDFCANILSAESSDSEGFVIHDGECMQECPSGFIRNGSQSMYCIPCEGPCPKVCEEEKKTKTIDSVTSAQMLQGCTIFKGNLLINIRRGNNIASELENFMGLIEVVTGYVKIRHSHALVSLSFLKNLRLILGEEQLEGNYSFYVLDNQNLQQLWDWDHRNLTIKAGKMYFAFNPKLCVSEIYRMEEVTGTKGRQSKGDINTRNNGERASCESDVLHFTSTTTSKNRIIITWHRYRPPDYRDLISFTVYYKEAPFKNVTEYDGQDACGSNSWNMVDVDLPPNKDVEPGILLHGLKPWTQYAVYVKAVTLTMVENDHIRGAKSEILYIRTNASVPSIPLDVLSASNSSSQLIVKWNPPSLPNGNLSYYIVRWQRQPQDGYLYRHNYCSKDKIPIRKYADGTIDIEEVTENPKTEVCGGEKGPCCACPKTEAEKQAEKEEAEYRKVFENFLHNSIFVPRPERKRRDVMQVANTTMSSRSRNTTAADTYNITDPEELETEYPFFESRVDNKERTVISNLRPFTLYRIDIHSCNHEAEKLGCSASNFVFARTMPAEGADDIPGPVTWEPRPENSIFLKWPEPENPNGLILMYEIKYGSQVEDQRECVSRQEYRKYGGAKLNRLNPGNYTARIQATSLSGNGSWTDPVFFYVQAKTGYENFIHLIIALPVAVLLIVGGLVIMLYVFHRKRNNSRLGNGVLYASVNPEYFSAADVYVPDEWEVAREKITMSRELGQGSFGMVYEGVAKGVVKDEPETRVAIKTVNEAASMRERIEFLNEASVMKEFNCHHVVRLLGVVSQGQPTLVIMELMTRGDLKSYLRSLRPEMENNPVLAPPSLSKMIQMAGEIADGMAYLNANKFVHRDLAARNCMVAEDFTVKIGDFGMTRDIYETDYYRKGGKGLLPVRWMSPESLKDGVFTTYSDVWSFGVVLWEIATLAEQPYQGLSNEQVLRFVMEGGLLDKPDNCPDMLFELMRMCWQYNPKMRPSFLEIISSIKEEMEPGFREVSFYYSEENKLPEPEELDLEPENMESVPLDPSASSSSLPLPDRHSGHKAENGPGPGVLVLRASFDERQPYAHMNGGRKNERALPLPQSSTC
CSK (h), sequence (P41240 whole entry): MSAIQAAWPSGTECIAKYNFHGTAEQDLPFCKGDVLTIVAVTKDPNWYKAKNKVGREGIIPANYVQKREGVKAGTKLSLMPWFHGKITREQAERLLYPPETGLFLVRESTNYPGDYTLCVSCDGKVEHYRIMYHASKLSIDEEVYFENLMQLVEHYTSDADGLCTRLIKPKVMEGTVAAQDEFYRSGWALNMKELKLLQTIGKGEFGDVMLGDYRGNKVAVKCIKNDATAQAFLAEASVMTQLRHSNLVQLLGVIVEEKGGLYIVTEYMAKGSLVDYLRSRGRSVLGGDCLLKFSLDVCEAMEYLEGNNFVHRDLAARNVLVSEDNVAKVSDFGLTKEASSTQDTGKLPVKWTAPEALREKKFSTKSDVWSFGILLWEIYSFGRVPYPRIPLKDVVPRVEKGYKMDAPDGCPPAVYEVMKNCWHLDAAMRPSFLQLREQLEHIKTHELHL
p38γ kinase (h), sequence (P53778 whole entry): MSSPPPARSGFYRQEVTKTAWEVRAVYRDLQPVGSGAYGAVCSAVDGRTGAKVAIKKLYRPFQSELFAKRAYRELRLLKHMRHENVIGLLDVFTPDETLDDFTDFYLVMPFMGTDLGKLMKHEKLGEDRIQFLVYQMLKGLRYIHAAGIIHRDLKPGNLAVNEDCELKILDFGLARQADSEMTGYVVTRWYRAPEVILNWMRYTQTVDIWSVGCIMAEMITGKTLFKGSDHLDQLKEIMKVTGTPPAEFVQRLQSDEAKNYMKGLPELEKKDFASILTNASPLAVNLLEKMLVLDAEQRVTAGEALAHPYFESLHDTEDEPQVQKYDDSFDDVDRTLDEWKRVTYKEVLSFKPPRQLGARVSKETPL
p38α kinase (h), sequence (Q16539 whole entry): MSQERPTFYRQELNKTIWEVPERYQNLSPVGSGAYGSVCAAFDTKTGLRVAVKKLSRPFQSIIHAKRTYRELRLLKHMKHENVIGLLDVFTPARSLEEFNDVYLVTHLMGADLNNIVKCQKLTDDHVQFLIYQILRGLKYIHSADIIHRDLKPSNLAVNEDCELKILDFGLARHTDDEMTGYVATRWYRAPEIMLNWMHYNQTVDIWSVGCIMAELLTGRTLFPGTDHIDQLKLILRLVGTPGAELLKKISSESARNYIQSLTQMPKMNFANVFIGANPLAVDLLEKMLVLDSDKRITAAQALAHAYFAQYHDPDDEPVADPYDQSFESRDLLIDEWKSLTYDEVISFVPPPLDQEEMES

## COc1ccc(-c2c3c4cc(OC)c(O)cc4oc(=O)c3n3ccc4cc(O)c(OC)cc4c23)cc1O [Compound 6, lamellarin N]
AMPKα
  Activity (% of control): 42.4 % of control
p38γ kinase (h)
  Activity (% of control): 79.6 % of control
ERK1 (h)
  Activity (% of control): 94.1 % of control
PDK1 (h)
  Activity (% of control): 89.8 % of control
Akt1/PKB α (h)
  Activity (% of control): 104.6 % of control
IGF1R kinase (h)
  Activity (% of control): 87.2 % of control
p38α kinase (h)
  Activity (% of control): 97.4 % of control
c-Met kinase (h)
  Activity (% of control): 92.1 % of control
CHK1 (h)
  Activity (% of control): 93.3 % of control
DYRK1A
  IC50: 35 nM
PKCβ 1 (h)
  Activity (% of control): 102.0 % of control
CSK (h)
  Activity (% of control): 47.4 % of control
FGFR2 kinase (h)
  Activity (% of control): 19.8 % of control
[1]
  IC50: 25 nM
BMX kinase (h) (Etk)
  Activity (% of control): 60.8 % of control
SH-SY5Y cells
  lowest dose at which cells start dying: 0.05 µM
[2]
  Activity (% of control): 4.0 % of control
